In brackets after ≈: the same amount, converted by molar mass. Read-outs that look alike come from different tables or passages of the source.

The target of data set [1] is MATE2-K (multidrug and toxin extrusion protein 2) (Homo sapiens (Human), UniProt Q86VL8). Description: MATE2-K IC50 assay (14C-metformin uptake in transfected MDCK-II cells). It counts as in vitro ADME. The procedure: MATE2-K (multidrug and toxin extrusion protein 2) is expressed in the apical membrane in the kidney and mediates the elimination of compounds to urine. MDCK-II cells were maintained in DMEM with low glucose and 10% FBS. Cells passages up to 40 were seeded at 60K±10K cells/well on 96-well, transwell membrane plates approximately 24 hours before transfection. Transport assays were carried out approximately 48 hours after transfection. […]. The assay plate was then placed in a 37° C. incubator with orbital shaking at approximately 60 RPM for the pre-incubation time of 15 minutes. […]. The assay plate was incubated at 37° C. with orbital shaking at approximately 60 RPM for the incubation time of 5 minutes. At end of the 5-minute incubation, 15 μL of dosing solution was removed from each well containing the compound being tested and measured using LC/MS/MS for dose recovery assessment. The assay wells were then washed four times with ice cold PBS. 60 μL cell extraction solution was added to each well and the plate was incubated at 37° C. with orbital shaking at approximately 60 RPM for the 15 minutes. After this incubation, 30 μL was removed from each well, added to 200 μL scintillation fluid, and counted on a 1450 Microbeta (Perkin-Elmer) to measure the probe substrate uptake. Inhibition potential of the compound being tested was calculated by dividing the transporter-mediated uptake rate in presence of the compound being tested or the reference inhibitor by the transporter-mediated uptake rate in presence of vehicle control and fitted to a sigmoidal function to determine the IC50 values.

The nature of data set [2]: Kinetic solubility at pH 7.4. The settings on record: 1×PBS buffer (pH 7.4), 22.8 °C, pH 7.4, aqueous buffer, kinetic from dmso stock.
Experimental: Kinetic Solubility at pH 7.4
(§1) The final DMSO Concentration was 1.0% and maximum theoretical compound concentration is 100 μM. The filter plate was sealed. […] The collection plate was sealed for analysis.
(§2) Filtrates were injected into the nitrogen detector for quantification on Analiza's Automated Discovery Workstation. The results are reported in μg/ml.
(§3) The filtrates were quantified with respect to this calibration curve. The calculated solubility values were corrected for background nitrogen present in the DMSO, and the media used to prepare the samples.
(§4) The 1×PBS buffer (pH 7.4) was prepared by adding 50 mL of phosphate buffered saline solution 10×, PBS (Fisher Bioreagent part number BP399-500) to approximately 450 mL HPLC grade H2O. The volume of the solution was then adjusted to 500 mL for a total dilution factor of 1:10 and a final PBS concentration of 1×. The pH of the final solution was measured and found to be 7.4.
(§5) Each compound tested was analyzed as a trifluoroacetate salt.
The target in a further data set is TLR8 (Homo sapiens (Human), UniProt Q9NR97). Description: TLR8 human peripheral blood mononuclear cell (PBMC) cell-based assay (Compound A as agonist; TNFα and IL12p40 readout). The settings on record: human PBMCs, TLR8 agonist Compound A at 800 nM, 6 hours, antagonist potency; read-out: TLR-8 EC50.
The target of the next data set is TLR7 (Homo sapiens (Human), UniProt Q9NYK1). Description: TLR7 human peripheral blood mononuclear cell (PBMC) cell-based assay (GS-986 as agonist; IL-6 and IFNα readout). The conditions noted are these: human PBMCs, TLR7 agonist GS-986 at 400 nM, 6 hours, antagonist potency; read-out: TLR-7 EC50. An outline of the steps:
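IL-6 and IFNα released into supernatant were quantified by electrochemiluminescence immunoassay. Before that, human PBMCs at 100,000 per well received a 10-point antagonist titration for 1 h, then TLR7 agonist for 6 more hours, all at 37 °C, 5% CO2.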

In data set [3] the test system is cryopreserved hepatocytes. Kind of data set: Human hepatic stability in cryopreserved hepatocytes. The settings on record: 1×10^6 cells/mL, aliquots at 0, 1, 3 and 6 hours, LC-MS/MS.
Experimental: (§6) Each tested compound was incubated in suspensions of cryopreserved hepatocytes at a final concentration of 1 μM. Vials containing cryopreserved hepatocytes were removed from liquid nitrogen and immediately immersed in a 37° C. water bath. The vials were swirled gently until the contents had thawed. They were then immediately emptied into 48 mL of pre-warmed HT medium in a 50 mL conical tube. Cells remaining in the vial were resuspended with 1.0 mL of pre-warmed HT medium and added to the conical tube. The tube was capped and then gently inverted several times to re-suspend the hepatocytes. The cell suspension was centrifuged at 500×g for 10 minutes at room temperature and the supernatant discarded. The cell pellet was loosened by gently swirling the centrifuge tube. Non-supplemented KHB medium was added to obtain the appropriate target cell density.
(§7) For incubations, aliquots of hepatocyte suspension (250 mL at a concentration of 2×10^6 cells/mL) were added to 250 mL of 2 mM of each tested compound in KHB, in duplicate wells in a 24-well plate. Final concentration in the incubations were 1×10^6 cells/mL and 1 mM of each tested compound. […] A cell-free control was also tested in parallel with the incubations. The incubations were carried out with gentle shaking in a 37° C. incubator under a humid atmosphere of 95% air/5% CO2 (v/v). Aliquots (100 mL) were removed after 0, 1, 3, and 6 hours and added to 200 mL IS/Q. The samples were then placed on a shaker for 10 min followed by centrifugation at 3000×g for 20 min. The supernatant was transferred to a new plate and diluted with 100 μL of water to reduce the organic solvent content and then placed on a shaker for 10 mins. Samples were injected and analyzed using LC-MS/MS.
The next data set can be described thus: physchem. The conditions noted are these: 22.8 °C, pH 7.4, aqueous buffer, kinetic from dmso stock.
In data set [4] the test system is cryopreserved hepatocytes. The conditions noted are these: human, 1 μM.
Experimental: as §6, §7
Setting [5] is: transfected MDCK-II cells, 10 μM 14C-metformin probe substrate, read-out: MATE2-K IC50.

TLR8, sequence (Q9NR97 27-1041): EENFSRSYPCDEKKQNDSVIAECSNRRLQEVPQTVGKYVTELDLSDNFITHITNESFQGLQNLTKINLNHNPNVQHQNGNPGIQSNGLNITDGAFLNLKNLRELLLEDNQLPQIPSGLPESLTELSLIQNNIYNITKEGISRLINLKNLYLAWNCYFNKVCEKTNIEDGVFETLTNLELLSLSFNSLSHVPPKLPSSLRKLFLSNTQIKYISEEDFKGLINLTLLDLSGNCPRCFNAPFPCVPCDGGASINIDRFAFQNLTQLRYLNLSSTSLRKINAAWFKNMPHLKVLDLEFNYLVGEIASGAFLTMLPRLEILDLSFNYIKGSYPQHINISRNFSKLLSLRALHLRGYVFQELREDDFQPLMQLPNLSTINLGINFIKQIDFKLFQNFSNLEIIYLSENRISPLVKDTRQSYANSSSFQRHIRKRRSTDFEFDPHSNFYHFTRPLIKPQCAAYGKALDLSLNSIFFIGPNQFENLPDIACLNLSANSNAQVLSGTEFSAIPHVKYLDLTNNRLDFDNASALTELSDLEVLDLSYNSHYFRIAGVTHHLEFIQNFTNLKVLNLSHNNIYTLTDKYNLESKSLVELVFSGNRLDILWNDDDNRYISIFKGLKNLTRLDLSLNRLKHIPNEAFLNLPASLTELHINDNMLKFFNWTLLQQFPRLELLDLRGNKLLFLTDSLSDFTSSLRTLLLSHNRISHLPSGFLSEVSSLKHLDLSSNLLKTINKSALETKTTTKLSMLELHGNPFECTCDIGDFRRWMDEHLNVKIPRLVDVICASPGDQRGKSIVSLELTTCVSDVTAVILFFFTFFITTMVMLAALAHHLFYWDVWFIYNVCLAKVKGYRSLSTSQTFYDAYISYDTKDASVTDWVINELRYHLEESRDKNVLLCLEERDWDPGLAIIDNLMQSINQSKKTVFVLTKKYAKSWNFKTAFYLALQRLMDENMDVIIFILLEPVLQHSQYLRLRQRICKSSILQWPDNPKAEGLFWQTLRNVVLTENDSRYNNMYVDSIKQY
TLR7, sequence (Q9NYK1 27-1049): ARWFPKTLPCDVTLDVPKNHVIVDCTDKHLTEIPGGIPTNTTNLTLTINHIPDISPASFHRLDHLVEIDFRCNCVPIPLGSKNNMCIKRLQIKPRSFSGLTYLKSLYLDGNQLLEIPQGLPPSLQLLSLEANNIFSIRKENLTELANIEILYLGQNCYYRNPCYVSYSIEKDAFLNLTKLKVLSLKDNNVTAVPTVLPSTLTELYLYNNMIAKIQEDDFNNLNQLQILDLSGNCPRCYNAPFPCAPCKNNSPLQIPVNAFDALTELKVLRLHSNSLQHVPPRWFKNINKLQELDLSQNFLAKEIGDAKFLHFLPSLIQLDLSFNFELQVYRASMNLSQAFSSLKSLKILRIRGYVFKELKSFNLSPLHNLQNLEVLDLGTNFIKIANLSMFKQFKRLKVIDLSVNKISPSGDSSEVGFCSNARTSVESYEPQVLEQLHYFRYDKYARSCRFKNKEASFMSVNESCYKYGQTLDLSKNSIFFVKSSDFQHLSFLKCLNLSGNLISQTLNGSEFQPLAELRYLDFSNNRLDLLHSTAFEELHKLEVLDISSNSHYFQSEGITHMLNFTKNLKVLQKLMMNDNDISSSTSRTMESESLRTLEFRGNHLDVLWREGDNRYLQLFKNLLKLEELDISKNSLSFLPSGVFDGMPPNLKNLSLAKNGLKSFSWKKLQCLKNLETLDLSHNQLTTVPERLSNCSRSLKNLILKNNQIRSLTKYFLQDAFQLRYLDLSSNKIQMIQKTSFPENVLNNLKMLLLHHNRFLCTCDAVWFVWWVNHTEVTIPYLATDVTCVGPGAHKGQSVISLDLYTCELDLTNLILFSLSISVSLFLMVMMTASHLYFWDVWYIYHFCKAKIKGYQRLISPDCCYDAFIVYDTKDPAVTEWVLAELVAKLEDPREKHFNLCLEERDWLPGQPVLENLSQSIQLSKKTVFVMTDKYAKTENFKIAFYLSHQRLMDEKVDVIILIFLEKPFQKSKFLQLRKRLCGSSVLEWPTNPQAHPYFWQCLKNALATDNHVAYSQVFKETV
MATE2-K (multidrug and toxin extrusion protein 2), sequence (Q86VL8 other isoform, or with tags, fused parts or gaps, species assumed): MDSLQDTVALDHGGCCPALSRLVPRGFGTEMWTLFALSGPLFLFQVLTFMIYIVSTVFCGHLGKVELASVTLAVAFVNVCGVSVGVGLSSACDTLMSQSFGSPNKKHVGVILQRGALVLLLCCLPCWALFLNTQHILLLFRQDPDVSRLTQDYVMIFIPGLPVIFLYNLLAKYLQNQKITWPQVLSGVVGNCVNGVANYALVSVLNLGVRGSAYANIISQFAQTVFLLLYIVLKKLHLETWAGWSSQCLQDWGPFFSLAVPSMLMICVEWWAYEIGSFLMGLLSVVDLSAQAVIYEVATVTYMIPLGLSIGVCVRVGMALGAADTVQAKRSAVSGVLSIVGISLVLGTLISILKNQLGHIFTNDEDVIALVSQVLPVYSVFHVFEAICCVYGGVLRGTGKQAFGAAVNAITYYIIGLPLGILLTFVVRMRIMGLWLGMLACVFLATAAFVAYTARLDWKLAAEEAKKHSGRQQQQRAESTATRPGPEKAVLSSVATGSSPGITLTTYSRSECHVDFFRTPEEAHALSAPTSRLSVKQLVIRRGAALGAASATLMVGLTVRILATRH
Experimental for physchem: Kinetic Solubility at pH 7.4
as §1, §2, §3, §4, §5

Turning to `Cc1c(-c2[nH]c3sc([C@@H]4C[C@@H]5C[C@H]4CN5C(C)C(N)=O)c(C)c3c2C(C)C)cn2ncnc2c1C` (single isomer, unassigned) [Example 100], the IC50 in data set [1] (setting [5]) was 9700 nM. The solubility (kinetic) at 24 h in data set [2] worked out at 23.5 µg/mL (≈ 47.9 µM). For the same compound, the figures for the EC50 on TLR8 and at TLR7 were 0.71 nM and 0.32 nM, respectively.

In the case of `Cc1c(-c2[nH]c3sc(C4CCN(C(=O)[C@H]5COCCN5)CC4)c(C)c3c2C(C)C)cn2ncnc2c1C` [Example 56], the “Predicted Clearance” value in data set [3] is 4.17 mL/min/kg. Further, in data set [1] (setting [5]), the IC50 worked out at 7700 nM. The kinetic solubility at 24 h in data set [2] amounted to 26.5 µg/mL (≈ 50.9 µM). Further, the 50% effective concentration (EC50) came out at 2.46 nM at TLR8 and 0.24 nM on TLR7.

Regarding `Cc1c(-c2[nH]c3sc(C4CCN(CC(N)=O)CC4)c(C)c3c2C(C)C)cn2ncnc2c1C` [Example 67], the “Predicted Clearance” value in data set [3] was 2.33 mL/min/kg. In data set [1], half-maximal inhibition (IC50) required 6200 nM. Moreover, the solubility (kinetic) at 24 h in data set [2] is 16.8 µg/mL (≈ 36.2 µM). Moreover, the EC50 is 2.08 nM on TLR8 and 0.35 nM at TLR7.

As to `Cc1c(-c2[nH]c3sc([C@@H]4C[C@@H]5C[C@H]4CN5CC(N)=O)c(C)c3c2C(C)C)cn2ncnc2c1C` [Example 79, 2-((1S,4R,5R)-5-(5-(7,8-dimethyl-[1,2,4]triazolo[1,5-a]pyridin-6-yl)-4 isopropyl-3-methyl-6H-thieno[2,3-b]pyrrol-2-yl)-2-azabicyclo[2.2.1]heptan-2-yl)acetamide], in data set [3], the “Predicted Clearance” value is 4.33 mL/min/kg. Also, half-maximal inhibition in data set [1] (IC50) was put at 8100 nM. This compound also came in with a solubility (kinetic) at 24 h in data set [2] of 21.5 µg/mL (≈ 45.1 µM). Also, the EC50 on TLR8 was found to be 0.23 nM; at TLR7, 0.12 nM.

Turning to `CNC(=O)CN1C[C@@H]2C[C@H]1C[C@H]2c1sc2[nH]c(-c3cn4ncnc4c(C)c3C)c(C(C)C)c2c1C` [Example 82], the IC50 in data set [1] was > 14500 nM. Further, the EC50 is 0.17 nM at TLR8 and 0.37 nM at TLR7.

With `Cc1c(-c2[nH]c3sc([C@H]4C[C@H]5C[C@@H]4CN5CC(N)=O)c(C)c3c2C(C)C)cn2ncnc2c1C` [Example 84], the “Predicted Clearance” value in data set [3] was 8.83 mL/min/kg. Besides, the EC50 on TLR8 amounted to 0.81 nM; at TLR7 it was 0.13 nM.

In data set [1], `Cc1c(-c2[nH]c3sc([C@@H]4C[C@H]5CC[C@@H](C4)N5CC(N)=O)c(C)c3c2C(C)C)cn2ncnc2c1C` [Example 91] registered an IC50 of 7800 nM. For the same compound, in the data set “physchem”, the solubility (kinetic) at 24 h was determined as 2.2 µg/mL (≈ 4.48 µM). Besides, the “Predicted Clearance” value in data set [4] is 4 mL/min/kg. Also, the EC50 is 5.41 nM at TLR8 and 0.09 nM on TLR7.

For `Cc1c(-c2[nH]c3sc([C@@H]4C[C@@H]5C[C@H]4CN5CC(N)=O)cc3c2C(C)C)cn2ncnc2c1C` [Example 97], the “Predicted Clearance” value in data set [3] is 13.5 mL/min/kg. Further, the kinetic solubility at 24 h in data set [2] was found to be 22.8 µg/mL (≈ 49.3 µM). Also, the EC50 at TLR8 is 1.09 nM; on TLR7, 0.31 nM.

`Cc1c(-c2[nH]c3sc(C4CCN(C(=O)[C@H]5CCCN5)CC4)c(C)c3c2C(C)C)cn2ncnc2c1C` [Example 98]: the “Predicted Clearance” value in data set [3] was 1.83 mL/min/kg. In data set [2], this compound registered a kinetic solubility at 24 h of 24.9 µg/mL (≈ 49.3 µM). Also, the concentration for a half-maximal effect (EC50) at TLR8 was 4.48 nM; at TLR7 it was 0.05 nM.

`Cc1c(-c2[nH]c3sc([C@@H]4C[C@@H]5C[C@H]4CN5Cc4cn(C)nn4)c(C)c3c2C(C)C)cn2ncnc2c1C` [Example 175]: in data set [3], the “Predicted Clearance” value was 4.33 mL/min/kg. The same compound came in with a kinetic solubility at 24 h in data set [2] of 21.1 µg/mL (≈ 41 µM). Moreover, the EC50 on TLR8 and on TLR7 was < 0.05 nM each time.

Consider `Cc1c(-c2[nH]c3sc([C@H]4C[C@@H]5C[C@H]4CN5CC(N)=O)c(C)c3c2C(C)C)cn2ncnc2c1C` [Example 183], for which the “Predicted Clearance” value in data set [3] is 10.7 mL/min/kg. For the same compound, the EC50 on TLR8 was found to be 2.82 nM; on TLR7, 0.07 nM.

In the case of `Cc1c(-c2[nH]c3sc(C4CCN(CC(N)=O)CC4)cc3c2C(C)C)cn2ncnc2c1C` [Example 221], in data set [3], the “Predicted Clearance” value is 2.67 mL/min/kg. In data set [2], this compound showed a kinetic solubility at 24 h of 1 µg/mL (≈ 2.22 µM). Besides, the EC50 at TLR8 worked out at 3.2 nM; on TLR7, 0.99 nM.

As for `Cc1c(-c2[nH]c3sc([C@@H]4C[C@@H]5C[C@H]4CN5CCO)c(C)c3c2C(C)C)cn2ncnc2c1C` [Example 229], the “Predicted Clearance” value in data set [3] is 3.67 mL/min/kg. In data set [2], this compound returned a solubility (kinetic) at 24 h of 27.7 µg/mL (≈ 59.7 µM). Also, the EC50 on TLR8 stood at 0.35 nM; on TLR7 it was 0.06 nM.

In the case of `Cc1c(-c2[nH]c3sc(C4CCC(N5CC6(CCNC6=O)C5)CC4)c(C)c3c2C(C)C)cn2ncnc2c1C` (stereo not drawn) [Example 299, 2-[4-[5-(7,8-dimethyl-[1,2,4]triazolo[1,5-a]pyridin-6-yl)-4-isopropyl-3-methyl-6H-thieno[2,3-b]pyrrol-2-yl]cyclohexyl]-2,6-diazaspiro[3.4]octan-5-one], the EC50 on TLR8 is 2.17 nM; at TLR7, 0.1 nM.

On to `Cc1c(-c2[nH]c3sc(C4CCC(N5CC6(CCO6)C5)CC4)c(C)c3c2C(C)C)cn2ncnc2c1C` (stereo not drawn) [Example 300], for which the results for the EC50 on TLR8 and at TLR7 were 1.85 nM and 0.22 nM, respectively.

Regarding `Cc1c(-c2[nH]c3sc(C4CCC(N5CC6(C5)CS(=O)(=O)C6)CC4)c(C)c3c2C(C)C)cn2ncnc2c1C` (stereo not drawn) [Example 301], the EC50 at TLR8 is 5.66 nM; on TLR7 it was 0.13 nM.

As to `Cc1c(-c2[nH]c3sc(C4CCC(N5CC[C@H](F)C5)CC4)c(C)c3c2C(C)C)cn2ncnc2c1C` (stereo partly drawn) [Example 302], the results for the EC50 at TLR8 and on TLR7 were 6.4 nM and 0.1 nM, respectively.

Consider `Cc1c(-c2[nH]c3sc(C4CCC(N5CC[C@@H](F)C5)CC4)c(C)c3c2C(C)C)cn2ncnc2c1C` (stereo partly drawn) [Example 303], for which the EC50 is 2.77 nM at TLR8 and < 0.05 nM on TLR7.

Regarding `Cc1c(-c2[nH]c3sc(C4CCC(N5CC(C)(O)C5)CC4)c(C)c3c2C(C)C)cn2ncnc2c1C` (stereo not drawn) [Example 304], the EC50 is 1.76 nM on TLR8 and < 0.05 nM at TLR7.

Regarding `Cc1c(-c2[nH]c3sc([C@@H]4C[C@@H]5C[C@H]4CN5CCS(=O)(=O)CCO)c(C)c3c2C(C)C)cn2ncnc2c1C` [Example 307, 2-((2-((1S,4R,5R)-5-(5-(7,8-dimethyl-[1,2,4]triazolo[1,5-a]pyridin-6-yl)-4 isopropyl-3-methyl-6H-thieno[2,3-b]pyrrol-2-yl)-2-azabicyclo[2.2.1]heptan-2-yl)ethyl)sulfonyl)ethan-1-ol], the 50% effective concentration (EC50) at TLR8 was 0.25 nM; at TLR7, 0.21 nM.

Turning to `Cc1c(-c2[nH]c3sc([C@@H]4C[C@@H]5C[C@H]4CN5C(CO)CO)c(C)c3c2C(C)C)cn2ncnc2c1C` [Example 308, 2-((1S,4R,5R)-5-(5-(7,8-dimethyl-[1,2,4]triazolo[1,5-a]pyridin-6-yl)-4 isopropyl-3-methyl-6H-thieno[2,3-b]pyrrol-2-yl)-2-azabicyclo[2.2.1]heptan-2-yl)propane-1,3-diol], the results for the concentration giving a half-maximal response (EC50) at TLR8 and at TLR7 were 1.16 nM and < 0.05 nM, respectively.

For `Cc1c(-c2[nH]c3sc(C4CCC(C(=O)N5CCNCC5)CC4)c(C)c3c2C(C)C)cn2ncnc2c1C` (stereo not drawn) [Example 309, (4-(5-(7,8-dimethyl-[1,2,4]triazolo[1,5-a]pyridin-6-yl)-4-isopropyl-3-methyl-6H-thieno[2,3-b]pyrrol-2-yl)cyclohexyl)(piperazin-1-yl)methanone], the EC50 at TLR8 stood at 8.07 nM; at TLR7, 0.14 nM.

Take `Cc1c(C2CCC(C(=O)N3CCNCC3)CC2)sc2[nH]c(-c3cc(C)c4ncnn4c3)c(C(C)C)c12` (stereo not drawn) [Example 310]: the EC50 on TLR8 came to 9.94 nM; at TLR7, 0.25 nM.

Take `Cc1c(-c2[nH]c3ccc(C4CCN(CC(N)=O)CC4)cc3c2C(C)C)cn2ncnc2c1C` [Example A-1, reference compound]: the “Predicted Clearance” value in data set [3] is 4.5 mL/min/kg. Besides, the IC50 in data set [1] (setting [5]) was determined as 300 nM. Also, the solubility (kinetic) at 24 h in data set [2] is < 1 µg/mL.

Turning to `COc1cc(-c2[nH]c3cc(C4CCNCC4)sc3c2C(C)C)cn2ncnc12` [Example B-1, reference compound], the “Predicted Clearance” value in data set [3] is 4.33 mL/min/kg. Moreover, the 50% inhibitory concentration (IC50) in data set [1] stood at 1100 nM. In addition, the solubility (kinetic) at 24 h in data set [2] worked out at 22 µg/mL (≈ 55.6 µM). The EC50 amounted to 2.55 nM at TLR8 and 0.3 nM on TLR7.

(Values after patent US11661431B2, “Thienopyrrole compounds” (Gilead Sciences, Inc., priority 2021, dated 2023).)
